Measurements published in patent publication US9790220B2, “Substituted cyclopentanes, tetrahydrofuranes and pyrrolidines as orexin receptor antagonists” (Takeda Pharmaceutical Company Limited, priority 2014, dated 2017).

Tests used:
human orexin receptor 2 = human orexin receptor 2 (Homo sapiens (Human), UniProt O43614); assay: Orexin antagonist activity, intracellular calcium FLIPR assay (orexin receptor 2); format: cell-based; settings: RBL-2H3 cells stably expressing human orexin receptor 2; orexin-A at approx. 80% maximal response; 15 min preincubation; read-out: Human Orexin2R IC50
Chain of human orexin receptor 2 (O43614 whole entry): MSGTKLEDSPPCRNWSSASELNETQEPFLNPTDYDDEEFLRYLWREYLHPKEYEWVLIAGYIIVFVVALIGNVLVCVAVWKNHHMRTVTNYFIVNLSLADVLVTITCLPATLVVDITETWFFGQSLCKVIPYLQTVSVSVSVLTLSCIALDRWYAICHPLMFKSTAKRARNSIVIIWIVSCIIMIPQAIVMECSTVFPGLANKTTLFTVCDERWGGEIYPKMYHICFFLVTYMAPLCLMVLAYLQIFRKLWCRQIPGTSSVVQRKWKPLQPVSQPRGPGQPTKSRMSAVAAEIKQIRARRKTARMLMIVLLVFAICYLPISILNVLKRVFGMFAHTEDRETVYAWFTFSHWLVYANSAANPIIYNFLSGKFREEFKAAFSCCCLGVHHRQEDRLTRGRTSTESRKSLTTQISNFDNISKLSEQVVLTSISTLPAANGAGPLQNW
Experimental: (§1) Orexin antagonist activity was determined by measuring changes in intracellular calcium levels using a Ca^2+ sensitive fluorescent dye. The changes in fluorescent signal were monitored by Fluorescent Imaging Plate Reader (FLIPR™) technology available from Molecular Devices, LLC, U.S.A. Orexin mediated increases in intracellular Ca^2+ concentration were readily detected upon activation with orexin-A. Twenty-four hours prior to the assay, RBL-2H3 cells stably expressing either human orexin receptor 1 or human orexin receptor 2 were seeded in cell culture medium in black, clear-bottom 384-well plates (commercially available from Corning Inc., U.S.A.) and grown overnight at 37° C., 5% CO2. On the day of the assay, cell culture media was removed and cells were loaded with Calcium 5 Dye (commercially sold by Molecular Devices, LLC, U.S.A.) for 1 hour at 37° C., 5% CO2. Test compounds (at 10 point half log concentration response curves from 10 μM) were added to cells for 15 minutes prior to the addition of orexin-A to all wells, to achieve a final concentration that produces approximately an 80% maximal response. The IC50 values were determined from ten point concentration response curves. Curves were generated using the average of two wells for each data point. The results obtained are shown in the table below in which ‘NT’ denotes ‘Not Tested’.

human orexin receptor 1 = human orexin receptor 1 (Homo sapiens (Human), UniProt O43613); assay: Orexin antagonist activity, intracellular calcium FLIPR assay (orexin receptor 1); format: cell-based; settings: RBL-2H3 cells stably expressing human orexin receptor 1; orexin-A at approx. 80% maximal response; 15 min preincubation; read-out: Human Orexin1R IC50
Chain of human orexin receptor 1 (O43613 whole entry): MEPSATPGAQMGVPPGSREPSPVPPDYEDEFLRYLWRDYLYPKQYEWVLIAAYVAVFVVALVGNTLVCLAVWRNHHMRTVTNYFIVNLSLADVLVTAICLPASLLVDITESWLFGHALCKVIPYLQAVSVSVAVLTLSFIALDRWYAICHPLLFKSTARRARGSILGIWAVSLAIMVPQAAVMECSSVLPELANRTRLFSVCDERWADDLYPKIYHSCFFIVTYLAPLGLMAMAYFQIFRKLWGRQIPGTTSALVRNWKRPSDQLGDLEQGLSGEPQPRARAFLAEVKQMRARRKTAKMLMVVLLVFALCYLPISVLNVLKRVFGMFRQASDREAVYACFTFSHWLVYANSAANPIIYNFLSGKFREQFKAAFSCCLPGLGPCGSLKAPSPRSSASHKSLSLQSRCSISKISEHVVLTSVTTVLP
Experimental: as §1

Row | SMILES | IC50 (human orexin receptor 2) | IC50 (human orexin receptor 1)
1 | O=C(N[C@H]1CCC[C@@H]1Nc1nc2ccc(F)cc2o1)c1ncccc1OC(F)F [Example 23, 3-(Difluoromethoxy)-N-[(1S,2S)-2-[(6-fluoro-1,3-benzoxazol-2-yl)amino]cyclopentyl]pyridine-2-carboxamide] | > 10000 nM | 290 nM
2 | COc1cccnc1C(=O)N[C@H]1CCC[C@@H]1Nc1cnc2ccccc2n1 [Example 16, 3-Methoxy-N-[(1S,2S)-2-[(quinoxalin-2-yl)amino]cyclopentyl]pyridine-2-carboxamide] |  | 630 nM
3 | O=C(N[C@H]1CCC[C@@H]1Nc1nc2ccc(Cl)cc2s1)c1ncccc1OC(F)F [Example 22, N-[(1S,2S)-2-[(6-Chloro-1,3-benzothiazol-2-yl)amino]cyclopentyl]-3-(difluoromethoxy)pyridine-2-carboxamide] | > 10000 nM | 300 nM
4 | COc1cccnc1C(=O)N[C@H]1CCC[C@@H]1Nc1nc2ccc(F)cc2s1 [Example 3, N-[(1S,2S)-2-[(6-Fluoro-1,3-benzothiazol-2-yl)amino]cyclopentyl]-3-methoxypyridine-2-carboxamide] | > 10000 nM | 170 nM
5 | O=C(N[C@H]1CCC[C@@H]1Nc1nc2ccc(F)cc2s1)c1ncccc1F [Example 11, 3-Fluoro-N-[(1S,2S)-2-[(6-fluoro-1,3-benzothiazol-2-yl)amino]cyclopentyl]pyridine-2-carboxamide] | > 10000 nM | 330 nM
6 | COc1cccnc1C(=O)N[C@H]1CCC[C@@H]1Nc1nc2ccc(F)cc2o1 [Example 7, N-[(1S,2S)-2-[(6-Fluoro-1,3-benzoxazol-2-yl)amino]cyclopentyl]-3-methoxypyridine-2-carboxamide] | > 10000 nM | 540 nM
7 | O=C(N[C@H]1CCC[C@@H]1Nc1nc2ccc(Cl)cc2o1)c1ncccc1OC(F)F [Example 25, N-[(1S,2S)-2-[(6-Chloro-1,3-benzoxazol-2-yl)amino]cyclopentyl]-3-(difluoromethoxy)pyridine-2-carboxamide] | > 10000 nM | 660 nM
8 | COc1ccc(C(F)(F)F)nc1C(=O)N[C@H]1CCC[C@@H]1Nc1nc2ccc(F)cc2s1 [Example 17, N-[(1S,2S)-2-[(6-Fluoro-1,3-benzothiazol-2-yl)amino]cyclopentyl]-3-methoxy-6-(trifluoromethyl)pyridine-2-carboxamide] | 9600 nM | 210 nM
9 | O=C(N[C@H]1CCC[C@@H]1Nc1nc2ccc(F)cc2s1)c1ncccc1N1CCCC1 [Example 14, N-[(1S,2S)-2-[(6-Fluoro-1,3-benzothiazol-2-yl)amino]cyclopentyl]-3-(pyrrolidin-1-yl)pyridine-2-carboxamide] | > 10000 nM | 170 nM
10 | CCOc1ccc(C)nc1C(=O)NC1CCCC1Cc1ccc2ccccc2n1 (stereo not drawn) [Example 26, 3-Ethoxy-6-methyl-N-[2-(quinolin-2-ylmethyl)cyclopentyl]pyridine-2-carboxamide] |  | 910 nM

Molecules with a lower IC50 (human orexin receptor 1), results first:

Row | IC50 (human orexin receptor 2) | IC50 (human orexin receptor 1) | SMILES
11 | > 10000 nM | 24 nM | O=C(N[C@H]1CCC[C@@H]1Nc1nc2ccc(Cl)cc2s1)c1ncccc1-n1nccn1 [Example 21, N-[(1S,2S)-2-[(6-Chloro-1,3-benzothiazol-2-yl)amino]cyclopentyl]-3-(2H-1,2,3-triazol-2-yl)pyridine-2-carboxamide]
12 | > 10000 nM | 8.6 nM | O=C(N[C@H]1CCC[C@@H]1Nc1nc2ccc(F)cc2s1)c1ncccc1-n1nccn1 [Example 6, N-[(1S,2S)-2-[(6-Fluoro-1,3-benzothiazol-2-yl)amino]cyclopentyl]-3-(2H-1,2,3-triazol-2-yl)pyridine-2-carboxamide]
13 | 3600 nM | 33 nM | O=C(N[C@H]1CCC[C@@H]1Nc1nc2ccc(F)cc2s1)c1ncccc1OC(F)(F)F [Example 19, N-[(1S,2S)-2-[(6-Fluoro-1,3-benzothiazol-2-yl)amino]cyclopentyl]-3-(trifluoromethoxy)pyridine-2-carboxamide]
14 | 3300 nM | 34 nM | CC(C)Oc1cccnc1C(=O)N[C@H]1CCC[C@@H]1Nc1nc2ccc(F)cc2s1 [Example 8, N-[(1S,2S)-2-[(6-Fluoro-1,3-benzothiazol-2-yl)amino]cyclopentyl]-3-(propan-2-yloxy)pyridine-2-carboxamide]
15 | > 10000 nM | 84 nM | COc1ccc(C)nc1C(=O)N[C@H]1CCC[C@@H]1Nc1nc2ccc(F)cc2s1 [Example 9, N-[(1S,2S)-2-[(6-Fluoro-1,3-benzothiazol-2-yl)amino]cyclopentyl]-3-methoxy-6-methylpyridine-2-carboxamide]
16 | 6000 nM | 71 nM | CCOc1ccc(C)nc1C(=O)NC1CCCC1Cc1ccc2ccccc2n1 (stereo not drawn) [Example 27, 3-Ethoxy-6-methyl-N-[2-(quinolin-2-ylmethyl)cyclopentyl]pyridine-2-carboxamide]
17 | > 10000 nM | 100 nM | O=C(N[C@H]1CCC[C@@H]1Nc1nc2ccc(F)cc2s1)c1ncccc1OC(F)F [Example 20, 3-(Difluoromethoxy)-N-[(1S,2S)-2-[(6-fluoro-1,3-benzothiazol-2-yl)amino]cyclopentyl]pyridine-2-carboxamide]
18 | > 10000 nM | 21 nM | O=C(N[C@H]1CCC[C@@H]1Nc1nc2ccc(F)cc2s1)c1ncccc1-n1cccn1 [Example 10, N-[(1S,2S)-2-[(6-Fluoro-1,3-benzothiazol-2-yl)amino]cyclopentyl]-3-(1H-pyrazol-1-yl)pyridine-2-carboxamide]
19 | 8800 nM | 41 nM | CCOc1cccnc1C(=O)N[C@H]1CCC[C@@H]1Nc1nc2ccc(F)cc2s1 [Example 18, 3-Ethoxy-N-[(1S,2S)-2[(6-fluoro-1,3-benzothiazol-2-yl)amino]cyclopentyl]pyridine-2-carboxamide]
20 | > 10000 nM | 43 nM | O=C(N[C@H]1CCC[C@@H]1Nc1nc2ccc(F)cc2s1)c1ncccc1Br [Example 1, 3-Bromo-N-[(1S,2S)-2-[(6-fluoro-1,3-benzothiazol-2-yl)amino]cyclopentyl]-pyridine-2-carboxamide]
21 | > 10000 nM | 86 nM | O=C(N[C@H]1CCC[C@@H]1Nc1nc2ccc(F)cc2s1)c1ncccc1-n1ccnn1 [Example 24, N-[(1S,2S)-2-[(6-Fluoro-1,3-benzothiazol-2-yl)amino]cyclopentyl]-3-(1H-1,2,3-triazol-1-yl)pyridine-2-carboxamide]
22 | > 10000 nM | 42 nM | O=C(N[C@H]1CCC[C@@H]1Nc1nc2ccc(F)cc2s1)c1ncccc1N1CCCCC1 [Example 12, N-[(1S,2S)-2-[(6-Fluoro-1,3-benzothiazol-2-yl)amino]cyclopentyl]-3-(piperidin-1-yl)pyridine-2-carboxamide]
23 | > 10000 nM | 150 nM | COC1CN(c2cccnc2C(=O)N[C@H]2CCC[C@@H]2Nc2nc3ccc(F)cc3s2)C1 [Example 15, N-[(1S,2S)-2-[(6-Fluoro-1,3-benzothiazol-2-yl)amino]cyclopentyl]-3-(3-methoxyazetidin-1-yl)pyridine-2-carboxamide]
24 | 2800 nM | 14 nM | COc1cccnc1C(=O)N(C)[C@H]1CCC[C@@H]1Nc1nc2ccc(F)cc2s1 [Example 5, N-[(1S,2S)-2-[(6-Fluoro-1,3-benzothiazol-2-yl)amino]cyclopentyl]-3-methoxy-N-methylpyridine-2-carboxamide]
25 | > 10000 nM | 69 nM | O=C(N[C@H]1CCC[C@@H]1Nc1nc2ccc(F)cc2s1)c1ncccc1N1CCC1 [Example 13, 3-(Azetidin-1-yl)-N-[(1S,2S)-2-[(6-fluoro-1,3-benzothiazol-2-yl)amino]cyclopentyl]pyridine-2-carboxamide]
